Experimental data as given in patent US10537590B2, “Cyclic dinucleotide compounds” (BOEHRINGER INGELHEIM INTERNATIONAL GMBH, priority 2016, dated 2020).
Where a name gives a salt, the structure may show the parent alone.

Columns and labels:
[1] = Mouse PK, plasma concentration after intravenous administration; type: in vivo; details: male C57BL/6NRj mouse, 10 μmol/Kg, mean of duplicate experiments
Description: The mouse PK of compounds of the invention was determined using the following method:
The compound was dissolved in a solution of physiological NaCl and administered intravenously to male C57BL/6NRj mouse at a dose of 10 μmol/Kg. A 20 μL blood sample was collected at 0.25, 0.5, 0.75, 1 and 2 h by taking ETDA as anticoagulant. Blood plasma was generated by centrifugation and stored at −20° C. The compound concentration was determined by LC-MS/MS.

[2] = target: Human STING (hSTING, residues 155-341, wild-type sequence) (Homo sapiens, UniProt Q86WV6, H232R); assay: Differential Scanning Fluorimetry (DSF), hSTING Tm shift; type: binding; details: 100 uM test compound, 3 uM target protein; for hSTING Tm shift: Sodium Salt
Description: The dissociation curves were processed in Bio-Rad CFX Manager. • Peak type was set to “negative”.

[3] = target: human STING protein in THP1-Blue ISG cells (Homo sapiens, UniProt Q86WV6, G230A/H232R/R293Q/R71H); assay: In vitro cytokine induction, THP1-Blue ISG IRF-inducible SEAP reporter assay; details: 24 hours incubation, OD at 620 nm
human STING protein in THP1-Blue ISG cells, sequence (Q86WV6 whole entry R71H/G230A/H232R/R293Q): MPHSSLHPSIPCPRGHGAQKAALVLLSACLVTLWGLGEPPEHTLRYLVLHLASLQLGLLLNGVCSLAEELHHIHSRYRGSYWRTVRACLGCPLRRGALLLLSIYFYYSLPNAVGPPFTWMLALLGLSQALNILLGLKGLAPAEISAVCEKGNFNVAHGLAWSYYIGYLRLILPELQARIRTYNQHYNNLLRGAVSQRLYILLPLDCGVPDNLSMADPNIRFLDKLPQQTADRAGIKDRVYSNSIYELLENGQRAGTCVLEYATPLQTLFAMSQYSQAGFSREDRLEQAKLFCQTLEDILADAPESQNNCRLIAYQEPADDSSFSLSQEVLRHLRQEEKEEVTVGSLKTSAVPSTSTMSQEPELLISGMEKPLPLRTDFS
Description: In Vitro Cytokine Induction
Using Invivogen's QUANTI-Blue™ colorimetric enzyme assay and a suitable optical density (OD) reader the activity of SEAP can be detected and quantified.
Measurements of SEAP activity were performed in THP1-Blue ISG cells stably expressing the human STING protein and the IRF-inducible SEAP reporter construct. Cells were cultivated for expansion in RPM11640 medium with 10% fetal calf serum, 50 μg/ml Penicillin-Streptomycin, 100 μg/ml Zeocin, and 100 μg/ml Normocin in a 37°, 95% humidity and 5% CO2 incubator. Assay-ready cells were stored as frozen stocks In preparation for the assay, the cells thawed in Zeocin-/Normocin-free medium and were distributed into the assay plates with a density of 15000 cells/15 μL per well. Compounds were prepared by an 8 or 16 point serial dilution in 50% aqueous DMSO and a final dilution step into medium to ensure a final DMSO concentration of 0.5% in the assay. 5 μL of diluted compounds plus 5 μL medium were added to the plates, followed by a 24 hours incubation at 37° C.
At the day of the assay, 75 μl per well of Quanti-Blue reagent was added to all wells of the plate and the plate was incubated another 30 minutes at 37° C. The OD at 620 nm was measured on the EnVision reader (PerkinElmer).

Human STING (hSTING, residues 155-341, wild-type sequence), sequence (Q86WV6 155-341 H232R): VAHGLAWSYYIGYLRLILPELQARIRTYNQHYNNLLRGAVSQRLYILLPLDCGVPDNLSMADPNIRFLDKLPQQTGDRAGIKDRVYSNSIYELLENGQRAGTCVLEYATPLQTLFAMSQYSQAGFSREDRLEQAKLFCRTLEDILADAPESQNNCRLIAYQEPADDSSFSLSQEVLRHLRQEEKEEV

compound concentration in plasma, T = 0.25 h [1] [nM]	compound concentration in plasma, T = 0.5 h [1] [nM]	compound concentration in plasma, T = 0.75 h [1] [nM]	compound concentration in plasma, T = 1 h [1] [nM]	compound concentration in plasma, T = 2 h [1] [nM]	hSTING Tm shift [2] [°C]	EC50 [3] [µM]	ΔTm at 100 µM [2] [°C]	SMILES
3080	1200	550	249	120				Nc1ncnc2c1ncn2[C@@H]1O[C@@H]2COP(=O)(S)O[C@H]3C(n4cnc5c(=O)[nH]ncc54)O[C@H](COP(=O)(S)O[C@H]2[C@H]1O)[C@H]3O (single isomer, unassigned) [Example 1.1, Cyclic (imidazopyridazinon-β-D-ribofuranoside-(2′→5′)-phosphorothioate-adenosine-(3′→5′)-phosphorothioate)]
						0.19	13.9	O=c1[nH]ncc2c1ncn2[C@@H]1O[C@@H]2COP(=O)(S)O[C@H]3[C@@H](O)[C@H](n4cnc5cncnc54)O[C@@H]3COP(=O)(S)O[C@@H]1[C@@H]2O (single isomer, unassigned) [Example 4.1, Cyclic (imidazopyridazinon-β-D-ribofuranoside-(2′→5′)-phosphorothioate-purine-β-D ribofuranoside-(3′→5′)-phosphorothioate), Sodium Salt]
					9.0	6.2		O=c1[nH]ncc2c1ncn2[C@@H]1O[C@@H]2COP(=O)(S)O[C@H]3[C@@H](O)[C@H](n4cnc5cncnc54)O[C@@H]3COP(=O)(S)O[C@@H]1[C@@H]2O (single isomer, unassigned) [Example 4.2, Cyclic (imidazopyridazinon-β-D-ribofuranoside-(2′→5′)-phosphorothioate-purine-β-D ribofuranoside-(3′→5′)-phosphorothioate), Sodium Salt]

Further lines, the compound ahead of its results:

SMILES	compound concentration in plasma, T = 0.25 h [1] [nM]	compound concentration in plasma, T = 0.5 h [1] [nM]	compound concentration in plasma, T = 0.75 h [1] [nM]	compound concentration in plasma, T = 1 h [1] [nM]	compound concentration in plasma, T = 2 h [1] [nM]	hSTING Tm shift [2] [°C]	EC50 [3] [µM]	ΔTm at 100 µM [2] [°C]
Nc1ncnc2c1ncn2[C@@H]1O[C@@H]2COP(=O)(S)O[C@@H]3[C@H](O)[C@@H](COP(=O)(S)O[C@H]2[C@H]1F)O[C@H]3n1cnc2c(=O)[nH]ncc21 (single isomer, unassigned) [Example 2.1, Cyclic (imidazopyridazinon-β-D-ribofuranoside-(2′→5′)-phosphorothioate-2′-F-2′-deoxyadenosine-(3′→5′)-phosphorothioate]	1970	699	401	241	78			
Nc1ncnc2c1ncn2[C@@H]1O[C@]23CO[C@@H]1[C@@H]2OP(=O)(S)OC[C@H]1O[C@@H](n2cnc4c(=O)[nH]ncc42)[C@H](OP(=O)(S)OC3)[C@@H]1O (single isomer, unassigned) [Example 3.1, Cyclic (imidazopyridazinon-β-D-ribofuranoside-(2′→5′)-phosphorothioate-LNA-adenine-(3′→5′)-phosphorothioate), Sodium Salt]	2710	1280	595	260	111	17.0	0.17	
Nc1ncnc2c1ncn2[C@@H]1O[C@]23CO[C@@H]1[C@@H]2OP(=O)(S)OC[C@H]1O[C@@H](n2cnc4c(=O)[nH]ncc42)[C@H](OP(=O)(S)OC3)[C@@H]1O (single isomer, unassigned) [Example 3.2, Cyclic (imidazopyridazinon-β-D-ribofuranoside-(2′→5′)-phosphorothioate-LNA-adenine-(3′→5′)-phosphorothioate), Sodium Salt]							8.5	9
